Target: T1, human α7 nAChR (Homo sapiens, UniProt P36544)
T1 construct: gene CHRNA7; full-length receptor, cRNA from pMXT vector, Xenopus laevis oocytes; homomeric pentamer
Assay: two-electrode voltage clamp, Xenopus oocytes
Format: cell-based

T1 sequence (P36544 23-502): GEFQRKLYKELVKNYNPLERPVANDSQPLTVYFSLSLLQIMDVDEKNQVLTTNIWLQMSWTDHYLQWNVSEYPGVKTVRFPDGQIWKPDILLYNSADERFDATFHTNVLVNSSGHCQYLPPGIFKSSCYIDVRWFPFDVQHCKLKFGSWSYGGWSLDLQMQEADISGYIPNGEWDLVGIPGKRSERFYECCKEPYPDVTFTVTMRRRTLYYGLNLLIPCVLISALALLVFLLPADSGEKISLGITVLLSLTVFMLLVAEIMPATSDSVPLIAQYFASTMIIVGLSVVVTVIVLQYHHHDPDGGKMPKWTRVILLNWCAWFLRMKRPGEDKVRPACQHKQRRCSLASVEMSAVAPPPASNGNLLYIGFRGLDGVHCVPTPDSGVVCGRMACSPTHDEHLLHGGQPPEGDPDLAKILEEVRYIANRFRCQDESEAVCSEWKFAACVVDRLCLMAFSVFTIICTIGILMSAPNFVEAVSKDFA

Work on `O=C(Nc1ccc(Br)cn1)[C@@H]1CCCNC1` [CU2017, N-(5-bromopyridin-2-yl)piperidine-3-carboxamide] yielded an IC50 of 26.7 ± 1.6 µM.

Source: article PMC5818190, “An allosteric binding site of the α7 nicotinic acetylcholine receptor revealed in a humanized acetylcholine-binding protein” (The Journal of Biological Chemistry, 2017)
